Starred links: 1 amine or outer side, 2 acyl side, 3 side chain; linkers in the order of their positions; H or OH if unused. Non-standard residues stand in square brackets, D forms with d. Residues, ends and D or L forms follow the SMILES beside them. Groups on a side chain read outwards from the residue. *: point of attachment. C18 diacid = O=C(O)CCCCCCCCCCCCCCCCC(=O)*; γGlu = O=C(O)[C@H](CCC(=O)[*:2])N[*:1]; AEEEA = NCCOCCOCCOCC(=O)O; AEEA = NCCOCCOCC(=O)O; Aib = CC(C)(N)C(=O)O; AEA = NCCOCC(=O)O

This note sets out measurements from US20250154226A1, “LONG-ACTING GLP-1/GLP-2 DUAL AGONIST COMPOUND” (CHENGDU AODA BIOTECHNOLOGY CO., LTD, priority 2022, published 2025).

A short description of data set [1]: Preliminary determination of pharmacokinetic properties in cynomolgus monkeys. It is filed as in vivo. As to conditions: cynomolgus monkey; male cynomolgus monkeys; subcutaneous (SC) 0.1 mg/kg; plasma, LC-MS. As to the method: The test animals were cynomolgus monkeys, two male cynomolgus monkeys in each compound group, and the drug was subcutaneously administered at 0.1 mg/kg. The blood was collected intravenously before (0 h) the administration, and 1 h, 2 h, 3 h, 4 h, 8 h, 12 h, 18 h, 24 h, 48 h, 96 h, 144 h, and 168 h after the administration of the compounds, and then centrifuged to isolate plasma samples.

The next data set concerns the target T1, GLP-1R (Homo sapiens, UniProt P43220).
T1 construct: expressed in transfected cells; host or cells: CHO-K1
The data set can be described thus: Determination of GLP-1 activity: cAMP chemiluminescence (RLU) in CHO-K1 cell line stably expressing GLP-1R. The settings on record: read-out: GLP-1 activity [EC50 (pmol)]. Format: cell-based. As to the method:
(§1) GLP-1R, under the stimulation of its specific agonist, can activate the intracellular adenylate cyclase pathway, and increase the level of cAMP, finally leading to the generation and release of insulin. The stimulation of the cell lines stably transfected with GLP-1R by the agonist to be tested can lead to rapid increase in the intracellular cAMP level, and the relative light units (RLUs) after stimulating the cells at each dose are determined by chemiluminescence method to calculate the EC50 of the agonist. This method for determining activity is commonly used for GLP-1 receptor agonist activity analysis at home and abroad.
CHO-K1 cell line stably expressing GLP-1R was stimulated with the agonist at different concentrations. The EC50 value of the agonist was calculated by determining the relative light units after stimulating the cells at each dose.

The target of a further data set is T2, GLP-2R (Homo sapiens, UniProt O95838).
T2 construct: expressed in transfected cells; host or cells: CHO-K1
T2 sequence (O95838 1-553): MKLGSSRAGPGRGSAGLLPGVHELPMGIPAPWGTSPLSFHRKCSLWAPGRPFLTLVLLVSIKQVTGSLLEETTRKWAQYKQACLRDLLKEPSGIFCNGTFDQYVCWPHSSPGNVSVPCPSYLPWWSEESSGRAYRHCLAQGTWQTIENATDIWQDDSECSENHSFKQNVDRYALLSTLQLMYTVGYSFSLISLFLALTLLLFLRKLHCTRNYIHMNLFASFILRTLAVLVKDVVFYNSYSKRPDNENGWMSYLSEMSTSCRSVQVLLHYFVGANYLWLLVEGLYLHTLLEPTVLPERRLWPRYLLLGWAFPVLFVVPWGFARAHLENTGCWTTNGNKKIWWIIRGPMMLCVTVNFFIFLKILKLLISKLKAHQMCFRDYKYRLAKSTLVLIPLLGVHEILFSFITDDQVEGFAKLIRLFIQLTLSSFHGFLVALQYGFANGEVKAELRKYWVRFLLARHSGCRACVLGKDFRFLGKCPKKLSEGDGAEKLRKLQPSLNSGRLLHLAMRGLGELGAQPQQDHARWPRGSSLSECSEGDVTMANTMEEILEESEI
The data set can be described thus: Determination of GLP-2 activity: cAMP chemiluminescence (RLU) in CHO-K1 cell line stably expressing GLP-2R. Format: cell-based. The settings on record: read-out: GLP-2 activity [EC50 (nmol)]. As to the method:
as §1, with “GLP-2R, under” for “GLP-1R, under”, “for GLP-2” for “for GLP-1”
CHO-K1 cell line stably expressing GLP-2R was stimulated with the agonist at different concentrations. The EC50 value of the agonist was calculated by determining the relative light units after stimulating the cells at each dose.

T1 sequence (P43220 24-463, species assumed): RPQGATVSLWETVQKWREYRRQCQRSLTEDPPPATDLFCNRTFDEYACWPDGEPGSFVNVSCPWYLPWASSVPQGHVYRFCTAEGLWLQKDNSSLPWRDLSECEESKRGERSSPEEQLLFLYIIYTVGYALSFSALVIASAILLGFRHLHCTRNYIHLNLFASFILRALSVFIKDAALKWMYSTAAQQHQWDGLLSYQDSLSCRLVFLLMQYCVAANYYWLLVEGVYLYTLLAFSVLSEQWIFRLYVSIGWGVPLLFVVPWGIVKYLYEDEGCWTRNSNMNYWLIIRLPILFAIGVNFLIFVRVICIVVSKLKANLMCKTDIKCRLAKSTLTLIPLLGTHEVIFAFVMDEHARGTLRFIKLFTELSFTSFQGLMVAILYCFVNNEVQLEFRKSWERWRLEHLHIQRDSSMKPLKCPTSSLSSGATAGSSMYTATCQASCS

For the compound `CC[C@H](C)[C@H](NC(=O)[C@H](Cc1ccccc1)NC(=O)[C@H](CC(=O)O)NC(=O)[C@H](CCCNC(=N)N)NC(=O)[C@H](C)NC(=O)[C@H](C)NC(=O)[C@H](CCC(N)=O)NC(=O)[C@H](CCCCNC(=O)COCCOCCOCCNC(=O)CC[C@H](NC(=O)CCCCCCCCCCCCCCCCC(=O)O)C(=O)O)NC(=O)[C@H](CC(=O)O)NC(=O)[C@H](CC(C)C)NC(=O)[C@@H](NC(=O)[C@@H](NC(=O)[C@H](C)NC(=O)[C@H](CC(C)C)NC(=O)[C@H](CCC(=O)O)NC(=O)[C@H](CO)NC(=O)[C@@H](NC(=O)[C@H](Cc1ccccc1)NC(=O)[C@H](CO)NC(=O)CNC(=O)[C@H](CCC(=O)O)NC(=O)C(C)(C)NC(=O)[C@@H](N)Cc1c[nH]cn1)[C@@H](C)O)[C@@H](C)O)[C@@H](C)CC)C(=O)N[C@@H](C)C(=O)N[C@@H](Cc1c[nH]c2ccccc12)C(=O)N[C@@H](CC(C)C)C(=O)N[C@H](C(=O)N[C@@H](CCC(N)=O)C(=O)N[C@@H](Cc1c[nH]cn1)C(=O)N[C@@H](CCCCN)C(=O)N[C@H](C(=O)N[C@H](C(=O)N[C@@H](CC(=O)O)C(N)=O)[C@@H](C)O)[C@@H](C)CC)[C@@H](C)CC` [Compound 4, His-Aib-Glu-Gly-Ser-Phe-Thr-Ser-Glu-Leu-Ala-Thr-Ile-Leu-Asp-Lys(PEG3CH2CO-γGlu-octadecanedioic acid)-Gln-Ala-Ala-Arg-Asp-Phe-Ile-Ala-Trp-Leu-Ile-Gln-His-Lys-Ile-Thr-Asp-NH2] (H-H[Aib]EGSFTSELATILDK([AEEEA-γGlu-C18 diacid])QAARDFIAWLIQHKITD-NH2; N-terminus assumed), the half-life – broadly, the time needed for the level to fall by half in the phase considered – in data set [1] is 59.2 h.
Take `CC[C@H](C)[C@H](NC(=O)[C@H](Cc1ccccc1)NC(=O)[C@H](CC(=O)O)NC(=O)[C@H](CCCNC(=N)N)NC(=O)[C@H](C)NC(=O)[C@H](C)NC(=O)[C@H](CCC(N)=O)NC(=O)[C@H](CCCCNC(=O)COCCOCCNC(=O)CC[C@H](NC(=O)CCCCCCCCCCCCCCCCC(=O)O)C(=O)O)NC(=O)[C@H](CC(=O)O)NC(=O)[C@H](CC(C)C)NC(=O)[C@@H](NC(=O)[C@@H](NC(=O)[C@H](C)NC(=O)[C@H](CC(C)C)NC(=O)[C@H](CCC(=O)O)NC(=O)[C@H](CO)NC(=O)[C@@H](NC(=O)[C@H](Cc1ccccc1)NC(=O)[C@H](CO)NC(=O)CNC(=O)[C@H](CCC(=O)O)NC(=O)C(C)(C)NC(=O)[C@@H](N)Cc1c[nH]cn1)[C@@H](C)O)[C@@H](C)O)[C@@H](C)CC)C(=O)N[C@@H](C)C(=O)N[C@@H](Cc1c[nH]c2ccccc12)C(=O)N[C@@H](CC(C)C)C(=O)N[C@H](C(=O)N[C@@H](CCC(N)=O)C(=O)N[C@@H](Cc1c[nH]cn1)C(=O)N[C@@H](CCCCN)C(=O)N[C@H](C(=O)N[C@H](C(=O)N[C@@H](CC(=O)O)C(N)=O)[C@@H](C)O)[C@@H](C)CC)[C@@H](C)CC` [Compound 3, His-Aib-Glu-Gly-Ser-Phe-Thr-Ser-Glu-Leu-Ala-Thr-Ile-Leu-Asp-Lys(AEEA-γGlu-octadecanedioic acid)-Gln-Ala-Ala-Arg-Asp-Phe-Ile-Ala-Trp-Leu-Ile-Gln-His-Lys-Ile-Thr-Asp-NH2] (H-H[Aib]EGSFTSELATILDK([AEEA-γGlu-C18 diacid])QAARDFIAWLIQHKITD-NH2): the EC50 – broadly, the concentration needed to bring the measured effect to its halfway point – was 0.0601 nM at GLP-1R and 4.7 nM on GLP-2R.
Turning to `CC[C@H](C)[C@H](NC(=O)[C@H](Cc1ccccc1)NC(=O)[C@H](CC(=O)O)NC(=O)[C@H](CCCNC(=N)N)NC(=O)[C@H](C)NC(=O)[C@H](C)NC(=O)[C@H](CCC(N)=O)NC(=O)[C@H](CCCCNC(=O)CC[C@H](NC(=O)CCCCCCCCCCCCCCCCC(=O)O)C(=O)O)NC(=O)[C@H](CC(=O)O)NC(=O)[C@H](CC(C)C)NC(=O)[C@@H](NC(=O)[C@@H](NC(=O)[C@H](C)NC(=O)[C@H](CC(C)C)NC(=O)[C@H](CCC(=O)O)NC(=O)[C@H](CO)NC(=O)[C@@H](NC(=O)[C@H](Cc1ccccc1)NC(=O)[C@H](CO)NC(=O)CNC(=O)[C@H](CCC(=O)O)NC(=O)C(C)(C)NC(=O)[C@@H](N)Cc1c[nH]cn1)[C@@H](C)O)[C@@H](C)O)[C@@H](C)CC)C(=O)N[C@@H](C)C(=O)N[C@@H](Cc1c[nH]c2ccccc12)C(=O)N[C@@H](CC(C)C)C(=O)N[C@H](C(=O)N[C@@H](CCC(N)=O)C(=O)N[C@@H](Cc1c[nH]cn1)C(=O)N[C@@H](CCCCN)C(=O)N[C@H](C(=O)N[C@H](C(=O)N[C@@H](CC(=O)O)C(N)=O)[C@@H](C)O)[C@@H](C)CC)[C@@H](C)CC` [Compound 1, His-Aib-Glu-Gly-Ser-Phe-Thr-Ser-Glu-Leu-Ala-Thr-Ile-Leu-Asp-Lys(γGlu-octadecanedioic acid-Gln-Ala-Ala-Arg-Asp-Phe-Ile-Ala-Trp-Leu-Ile-Gln-His-Lys-Ile-Thr-Asp-NH2] (H-H[Aib]EGSFTSELATILDK([γGlu-C18 diacid])QAARDFIAWLIQHKITD-NH2), the EC50 on GLP-1R amounted to 0.0947 nM; at GLP-2R it was 6.04 nM.
Take `CC[C@H](C)[C@H](NC(=O)[C@H](Cc1ccccc1)NC(=O)[C@H](CC(=O)O)NC(=O)[C@H](CCCNC(=N)N)NC(=O)[C@H](C)NC(=O)[C@H](C)NC(=O)[C@H](CCC(N)=O)NC(=O)[C@H](CCCCNC(=O)COCCNC(=O)CC[C@H](NC(=O)CCCCCCCCCCCCCCCCC(=O)O)C(=O)O)NC(=O)[C@H](CC(=O)O)NC(=O)[C@H](CC(C)C)NC(=O)[C@@H](NC(=O)[C@@H](NC(=O)[C@H](C)NC(=O)[C@H](CC(C)C)NC(=O)[C@H](CCC(=O)O)NC(=O)[C@H](CO)NC(=O)[C@@H](NC(=O)[C@H](Cc1ccccc1)NC(=O)[C@H](CO)NC(=O)CNC(=O)[C@H](CCC(=O)O)NC(=O)C(C)(C)NC(=O)[C@@H](N)Cc1c[nH]cn1)[C@@H](C)O)[C@@H](C)O)[C@@H](C)CC)C(=O)N[C@@H](C)C(=O)N[C@@H](Cc1c[nH]c2ccccc12)C(=O)N[C@@H](CC(C)C)C(=O)N[C@H](C(=O)N[C@@H](CCC(N)=O)C(=O)N[C@@H](Cc1c[nH]cn1)C(=O)N[C@@H](CCCCN)C(=O)N[C@H](C(=O)N[C@H](C(=O)N[C@@H](CC(=O)O)C(N)=O)[C@@H](C)O)[C@@H](C)CC)[C@@H](C)CC` [Compound 2, His-Aib-Glu-Gly-Ser-Phe-Thr-Ser-Glu-Leu-Ala-Thr-Ile-Leu-Asp-Lys(PEG1CH2CO-γGlu-octadecanedioic acid)-Gln-Ala-Ala-Arg-Asp-Phe-Ile-Ala-Trp-Leu-Ile-Gln-His-Lys-Ile-Thr-Asp-NH2] (H-H[Aib]EGSFTSELATILDK([AEA-γGlu-C18 diacid])QAARDFIAWLIQHKITD-NH2; N-terminus assumed): the values for the EC50 at GLP-1R and at GLP-2R were 0.0686 nM and 5.51 nM, respectively.
